Experimental data: patent publication US7342137B1, “Cyclohexenone compounds from Antrodia camphorata and application thereof” (Golden Biotechnology Corporation, priority 2007, dated 2008)

What was measured:
[1] = system: human hepatic cancer cells, Hep 3B; assay: In vitro Lovastatin add-on study (MTT), Hep 3B; format: cell-based; conditions: 0.0043 μg/ml Lovastatin 72 hours, 0 μg/ml formula 2
Procedure: (§1) The experiment was also carried out according to NCI anti-cancer drug screen in vitro model. The human hepatic cancer cells, Hep 3B and Hep G2 and MDA-MB-231 were separately cultivated in media containing fetal calf serum for 24 hours. The proliferated cells were washed once with PBS, then treated with 1× trypsin-EDTA and centrifuged at 1200 rpm for 5 minutes. The supernatant was discarded and the cell pellet was resuspended in 10 ml of fresh culture medium by gently shaking. The Hep 3B cells were treated with 0.0043 μg/ml of Lovastatin for 72 hours and Hep G2 cells were treated with 0.0017 μg/ml of Taxol for 72 hours before placing in a 96-well plate. 4-hydroxy-2,3-dimethoxy-6-methyl-5(3,7,11-trimethyl-dodeca-2,6,10-trienyl)-cyclohex-2-enone obtained from example 1 were added respectively into each of the 96 wells at the following concentrations: 0 μg/ml (the control group); 30, 10, 3, 1, 0.3, 0.1 and 0.03 μg/ml (the experiment group). The cells were incubated at 37° C. in a 5% CO2 incubator for 48 hours. MTT was added in a concentration of 2.5 mg/ml into each well in dark and reacted for 4 hours, followed by the addition of 100 μl of lysis buffer to stop the reaction. The plates were read on an ELISA reader at wavelength of 570 nm to determine the survival rates.

[2] = system: Human low density lipoprotein (LDL); assay: In vitro antioxidant activity study (Cu2+-induced LDL oxidation, diene formation); format: biochemical; conditions: for Tlag: LDL oxidised with 5 μM CuSO4; for Capacity values: capacity value 1 = 2 μM Trolox; for ΔTlag: difference between Tlag and Tlag0 (H2O)
Procedure: Human low density lipoprotein (LDL) oxidated with copper ion (Cu^2+) has been widely employed to assess antioxidant activities of samples to be assayed. Antioxidant activity of a sample is determined by the diene contents of LDL after oxidation and expressed in Trolox equivalents by using a standard curve calculated from the water-soluble vitamin E analogue Trolox standards (the antioxidant capacity value of 1 is expressed in terms of 2 μM of Trolox).
The following solutions were prepared firstly: double distilled water (the negative control group), 5 mM sodium phosphate buffer (SPB), 1 μM and 2 μM Trolox solution (the positive control group), and 40 μg/ml 4-hydroxy-2,3-dimethoxy-6-methyl-5(3,7,11-trimethyl-dodeca-2,6,10-trienyl)-cyclohex-2-enone isolated from example 1. The concentration of LDL cholesterol (LDL-C) was determined using enzyme reaction method, which was diluted to 0.1-0.25 mg/ml with 5 mM SPB. One hundred μl of the LDL was added into each well of a 96-well quartz plate, followed by addition of the abovementioned Trolox and the isolated compound from example 1. Standardized oxidizing agent CuSO4 was supplemented to induce oxidation at a final concentration of 5 μM in each 250 μl well. The plate was read on an ELISA reader at wavelength of 232 nm at 37 °C for 12 hours. The sampling time was 15 min.

[3] = system: human breast-cancer cells, MCF-7; assay: In vitro Taxol add-on study (MTT), MCF-7; format: cell-based; conditions: 0.0017 μg/ml Taxol 72 hours, 0 μg/ml formula 2
Procedure: as §1, with “breast-cancer” for “hepatic cancer”, “MCF-7” for “Hep 3B and Hep G2”, “The” for “The Hep 3B”, “placed” for “treated with 0.0043 μg/ml of Lovastatin for 72 hours and Hep G2 cells were treated with 0.0017 μg/ml of Taxol for 72 hours before placing”, “plate after 0.0017 μg/ml Taxol was added and treated for 72 hours.” for “plate.”, “terminate” for “stop”

[4] = system: human breast-cancer cells, MDA-MB-231; assay: In vitro Taxol add-on study (MTT), MDA-MB-231; format: cell-based; conditions: 0.0017 μg/ml Taxol 72 hours, 0 μg/ml formula 2
Procedure: as §1, with “breast-cancer” for “hepatic cancer”, “MCF-7” for “Hep 3B and Hep G2”, “The” for “The Hep 3B”, “placed” for “treated with 0.0043 μg/ml of Lovastatin for 72 hours and Hep G2 cells were treated with 0.0017 μg/ml of Taxol for 72 hours before placing”, “plate after 0.0017 μg/ml Taxol was added and treated for 72 hours.” for “plate.”, “terminate” for “stop”

[5] = system: human prostate cancer cells, LNCaP; assay: In vitro Taxol add-on study (MTT), prostate cancer cells LNCaP; format: cell-based; conditions: LNCaP (0.0017 μg/ml Taxol) as printed in Table 6; 0 μg/ml formula 2
Procedure: as §1, with “human prostate” for “human hepatic”, “cells, LNCaP” for “cells, Hep 3B”, “and DU-145” for “and Hep G2 and MDA-MB-231”, “The LNCaP cells were treated with 0.0017 μg/ml of Taxol for 72 hours and DU-145” for “The Hep 3B”, “0.0043” for “0.0043 μg/ml of Lovastatin for 72 hours and Hep G2 cells were treated with 0.0017”

[6] = system: human hepatic cancer cells, Hep G2; assay: In vitro Taxol add-on study (MTT), Hep G2; format: cell-based; conditions: 0.0017 μg/ml Taxol 72 hours, 0 μg/ml formula 2
Procedure: as §1

[7] = system: human prostate cancer cells, DU-145; assay: In vitro Taxol add-on study (MTT), prostate cancer cells DU-145; format: cell-based; conditions: DU-145 (0.0043 μg/ml Taxol) as printed in Table 6; 0 μg/ml formula 2
Procedure: as §1, with “human prostate” for “human hepatic”, “cells, LNCaP” for “cells, Hep 3B”, “and DU-145” for “and Hep G2 and MDA-MB-231”, “The LNCaP cells were treated with 0.0017 μg/ml of Taxol for 72 hours and DU-145” for “The Hep 3B”, “0.0043” for “0.0043 μg/ml of Lovastatin for 72 hours and Hep G2 cells were treated with 0.0017”

CC[C@H](C)C(=O)O[C@H]1C[C@@H](C)C=C2C=C[C@H](C)[C@H](CC[C@@H]3C[C@@H](O)CC(=O)O3)[C@H]21 [Lovastatin, reference compound]
Cell survival rate (%) [1]: 61 ± 3%

Cc1c(C)c2c(c(C)c1O)CCC(C)(C(=O)O)O2 (stereo not drawn) [Trolox]
Tlag ([2]; 1 μM Trolox): 266 min
Capacity values ([2]; 1 μM Trolox): 0.48
ΔTlag ([2]; 1 μM Trolox): 81 min
Tlag ([2]; 2 μM Trolox): 344 min
Capacity values ([2]; 2 μM Trolox): 1.00
ΔTlag ([2]; 2 μM Trolox): 159 min

CC(=O)O[C@H]1C(=O)[C@@]2(C)[C@H]([C@H](OC(=O)c3ccccc3)[C@]3(O)C[C@H](OC(=O)[C@H](O)[C@@H](NC(=O)c4ccccc4)c4ccccc4)C(C)=C1C3(C)C)[C@]1(OC(C)=O)CO[C@@H]1C[C@@H]2O [Taxol, reference compound]
Cell survival rate (%) [3]: 65 ± 1%
Cell survival rate (%) [4]: 76 ± 3%
Cell survival rate (%) [5]: 56 ± 3%
Cell survival rate (%) [6]: 81 ± 2%
Cell survival rate (%) [7]: 70 ± 2%
